Values of other authors in patent publication EP0687181B1, “USE OF THYMOSIN FOR TREATING HEPATITIS C IN NON-RESPONDERS TO INTERFERON TREATMENT” (ALPHA 1 BIOMEDICALS, INC., priority 1993, dated 2001).
Where no end group is shown, it is not given here.

How the values were obtained:
HCV-related diseases = conditions: in vivo
influenza vaccine = conditions: drug recipients

Row | Compound | effect on progression of HCV-related diseases (HCV-related diseases) | toxicity (influenza vaccine)
1 | Nc1nc2c(ncn2COCCO)c(=O)[nH]1 [acyclovir] | ineffective | 
2 | Ac-SDAAVDTSSEITTKDLKEKKEVVEEAEN [Thymosin α-1] |  | No clinical or biochemical toxicity
